The subject of data set [1] is Friend leukemia virus. The data set is described as follows: Test 3: survival rate of mice in lethal FLV infection. Type of data set: in vivo. Conditions: 42 days. Here is the method:
Friend leukemia virus FLV) was prepared as a 20% suspension of infected C3H/HeN spleen in Hank's balanced saline and 0.2 ml/head of the FLV preparation was challenged intraperitoneally to mice in groups of 12. The viruses were challenged in amounts large enough to cause death within a short time.
FK-565 (1, 0.01 mg/kg) was given intravenously once a day on days 1, 4, 7, 11, 14, 18, 21 and 25 (total: 8 doses).
The mice were given the two drugs according to the same dosing schedules.

Data set [2] has as its system Friend leukemia virus. Briefly: Test 2: splenomegaly by FLV in mice, same method as Test 1 with other doses. Format: in vivo, C3H/HeN mice. Conditions: day 14. The protocol:
(§1) Animals: Male C3H/HeN strain mice aged 5 weeks were used in groups of 10. The animals were housed in an isolation room at 21°-25° C. and supplied with food and water at libitum.
Virus and Induction of splenomegaly: Friend leukemia virus (FLV) was prepared as a 10% suspension of infected C3H/HeN spleen in Hank's balanced saline and was originally supplied by Kitazato University. Following centrifugation (7,000 rpm for 20 mins.) the virus preparation was frozen and stored at -70° C. 0.2 ml/head of FLV diluted 2-, 5-, or 10-fold to induce infection of varying severity was challenged intraperitoneally in mice.
Dosing schedules: FK-565 was given intravenously or orally in doses of 0.01 mg/kg to 1 mg/kg 4 hours after challenge and once on days 3, 7, 11 (total 4 doses).

Data set [3] relates to Rauscher murine leukemia virus complex(RLV). The following applies: mice infected with RLV; cited from earlier work.
The conditions of data set [4]: therapeutic dose of AZT; cited from earlier work.
Data set [5] deals with Friend leukemia virus. Briefly: Test 1: splenomegaly by Friend leukemia virus in mice (severe infection). Type of data set: in vivo, C3H/HeN mice. The protocol:
as §1
Virus and Induction of splenomegaly: Friend leukemia virus (FLV) was prepared as a 10% suspension of infected C3H/HeN spleen in Hank's balanced saline and was originally supplied by Kitazato University. Following centrifugation (7,000 rpm for 20 mins.) the virus preparation was frozen and stored at -70° C. 0.2 ml/head of FLV diluted 2-, 5-, or 10-fold to induce infection of varying severity was challenged intraperitoneally in mice. […]

The mark [6] stands for this setting: FK-565 0.01 mg/kg i.v., AZT 0 mg/kg.
[7] abbreviates: FK-565 1 mg/kg i.v., AZT 0 mg/kg.
Setting [8] is: FK-565 0.01 mg/kg i.v. alone, day 14.
[9] abbreviates: FK-565 0.1 mg/kg i.v. alone, day 14.
The mark [10] stands for this setting: FK-565 0.1 mg/kg p.o. alone, day 14.

With `Cc1cn([C@H]2C[C@H](N=[N+]=[N-])[C@@H](CO)O2)c(=O)[nH]c1=O` [AZT, 3'-Azido-3'-deoxythymidine], the survival rate with Friend leukemia virus [1] (AZT 4 mg/kg/time i.p., FK-565 0) was 0; in the data set with Friend leukemia virus [1] (AZT 20 mg/kg/time i.p., FK-565 0), 25; in the data set on Friend leukemia virus [1] (AZT 100 mg/kg/time i.p., FK-565 0), 50. Also, the “(%) inhibition of splenomegaly” value in the data set with Friend leukemia virus [2] (AZT 0.63 mg/kg i.p. alone) was 33.3%; with Friend leukemia virus [2] (AZT 2.5 mg/kg i.p. alone) it was 38.3%; in the data set on Friend leukemia virus [2] (AZT 10 mg/kg i.p. alone), 49.3%; in the data set with Friend leukemia virus [2] (AZT 40 mg/kg i.p. alone), 81.1%; in the data set on Friend leukemia virus [2] (AZT 160 mg/kg i.p. alone) it was 97.4%. For the same molecule, the Spleen with Friend leukemia virus [2] (AZT 0.63 mg/kg i.p. alone) was found to be 633 ± 67.6 mg; in the data set with Friend leukemia virus [2] (AZT 2.5 mg/kg i.p. alone), 605 ± 134.9 mg; in the data set on Friend leukemia virus [2] (AZT 10 mg/kg i.p. alone), 519 ± 130.6 mg; in the data set on Friend leukemia virus [2] (AZT 40 mg/kg i.p. alone), 267 ± 51.6 mg. The “survival time in infected mice” value in data set [3] is “prolong significantly the survival time”. Besides, in data set [4], the side effects entry was “anemia, leukopenia, neutropenia and occasional thrombocytopenia”. The Inhibition % was 24.8% with Friend leukemia virus [5] (AZT 5 mg/kg i.p. alone, day 14) and 38.1% with Friend leukemia virus [5] (AZT 20 mg/kg i.p. alone, day 14). Besides, the Spleen weight in the data set on Friend leukemia virus [5] (AZT 5 mg/kg i.p. alone, day 14) was determined as 1107.8 ± 158.3 mg; in the data set with Friend leukemia virus [5] (AZT 20 mg/kg i.p. alone, 27 doses, FLV 2-fold dilution, 14 days after infection), 944.0 ± 104.9 mg.

As to `CCCCCCC(=O)N[C@H](CCC(=O)N[C@@H](CCC[C@@H](N)C(=O)O)C(=O)N[C@H](C)C(=O)O)C(=O)O` [FK-565], the survival rate with Friend leukemia virus [1] (FK-565 0.01 mg/kg/time i.v., AZT 0) is 8; in the data set with Friend leukemia virus [1] (FK-565 1 mg/kg/time i.v., AZT 0) it was 17. For the same molecule, the figures for the “(%) inhibition of splenomegaly” value in the data set with Friend leukemia virus [2] (setting [6]) and in the data set with Friend leukemia virus [2] (setting [7]) were 19.6% and 55.3%, respectively. The Spleen with Friend leukemia virus [2] (setting [6]) came to 750 ± 119.0 mg; in the data set on Friend leukemia virus [2] (setting [7]), 487 ± 47.3 mg. The Inhibition % in the data set with Friend leukemia virus [5] (setting [8]) was found to be 36.4%; with Friend leukemia virus [5] (setting [9]), 37.0%; in the data set with Friend leukemia virus [5] (setting [10]), 27.8%; in the data set with Friend leukemia virus [5] (FK-565 1 mg/kg i.v. alone, day 14), 46.5%; in the data set on Friend leukemia virus [5] (FK-565 1 mg/kg p.o. alone, day 14) it was 38.9%. The Spleen weight in the data set with Friend leukemia virus [5] (setting [8]) was found to be 1047.0 ± 106.1 mg; in the data set on Friend leukemia virus [5] (setting [9]) it was 1038.0 ± 176.8 mg; in the data set with Friend leukemia virus [5] (setting [10]), 1133.0 ± 170.0 mg; in the data set on Friend leukemia virus [5] (FK-565 1 mg/kg i.v. alone, 4 doses, day 14), 947.0 ± 124.1 mg; with Friend leukemia virus [5] (FK-565 1 mg/kg p.o. alone, 4 doses, day 14) it was 984.0 ± 144.8 mg.

Source of the values: patent US5229368A, “Composition for prevention and (or) treatment of Aids” (Fujisawa Pharmaceutical Co., Ltd., priority 1987, dated 1993).
